Measurements: BindingDB's records for doi:10.1021/acsmedchemlett.8b00549 (Stellenbosch University, 2019)

Tests used:
[1] = Inhibition of wild-type HIV1 reverse transcriptase in HIV1 infected HEK293T cells harboring luciferase gene assessed as reduction in viral infection after 48 hrs by Bright-Glo luciferase assay
[2] = Inhibition of HIV1 reverse transcriptase Y188C mutant in HIV1 infected HEK293T cells harboring luciferase gene assessed as reduction in viral infection after 48 hrs by Bright-Glo luciferase assay
[3] = Inhibition of HIV1 reverse transcriptase V106M mutant in HIV1 infected HEK293T cells harboring luciferase gene assessed as reduction in viral infection after 48 hrs by Bright-Glo luciferase assay
[4] = Inhibition of HIV1 reverse transcriptase G190A mutant in HIV1 infected HEK293T cells harboring luciferase gene assessed as reduction in viral infection after 48 hrs by Bright-Glo luciferase assay
[5] = Inhibition of HIV1 reverse transcriptase Y188H mutant in HIV1 infected HEK293T cells harboring luciferase gene assessed as reduction in viral infection after 48 hrs by Bright-Glo luciferase assay
[6] = Inhibition of HIV1 reverse transcriptase Y181C mutant in HIV1 infected HEK293T cells harboring luciferase gene assessed as reduction in viral infection after 48 hrs by Bright-Glo luciferase assay
[7] = Inhibition of HIV1 reverse transcriptase K103N mutant in HIV1 infected HEK293T cells harboring luciferase gene assessed as reduction in viral infection after 48 hrs by Bright-Glo luciferase assay
[8] = Inhibition of HIV1 reverse transcriptase K103N/Y181C double mutant in HIV1 infected HEK293T cells harboring luciferase gene assessed as reduction in viral infection after 48 hrs by Bright-Glo luciferase assay

Q: For Cn1c(=O)[nH]c2cccc(Oc3cc(Cl)cc(C#N)c3)c21, which IC50 [1] is on record?
A: 0.029 µM

Q: And the IC50 [2]?
A: 0.236 µM

Q: What about the IC50 [3] of the same compound?
A: 0.494 µM

Q: What about the IC50 [4] of the same compound?
A: 0.107 µM

Q: And the IC50 [5]?
A: 0.074 µM

Q: What about the IC50 [6] of the same compound?
A: 0.055 µM

Q: And the IC50 [7]?
A: 0.126 µM

Q: Which results are given for CCn1c(=O)[nH]c2cccc(Oc3cc(C#N)cc(/C=C/C#N)c3)c21?
A: IC50 [1]: 0.049 µM; IC50 [2]: 0.014 µM; IC50 [3]: 0.926 µM; IC50 [4]: 0.377 µM; IC50 [5]: 0.468 µM; IC50 [6]: 0.073 µM; IC50 [7]: 0.166 µM; IC50 [8]: 0.051 µM

Q: With CC1(C)OC(=O)Nc2cccc(Oc3cc(Cl)cc(C#N)c3)c21 as the compound, how does the IC50 [1] read?
A: 0.021 µM

Q: What about the IC50 [2] of the same compound?
A: 0.007 µM

Q: What about the IC50 [3] of the same compound?
A: 0.63 µM

Q: What about the IC50 [4] of the same compound?
A: 2.76 µM

Q: And the IC50 [5]?
A: 1.15 µM

Q: What about the IC50 [6] of the same compound?
A: 0.028 µM

Q: And the IC50 [7]?
A: 0.798 µM

Q: And the IC50 [8]?
A: 0.894 µM

Q: For CCn1c(=O)[nH]c2cccc(Oc3cc(Cl)cc(C#N)c3)c21, which IC50 [1] is on record?
A: 0.026 µM

Q: What about the IC50 [2] of the same compound?
A: 0.007 µM

Q: What about the IC50 [3] of the same compound?
A: 0.293 µM

Q: And the IC50 [4]?
A: 0.126 µM

Q: And the IC50 [5]?
A: 0.415 µM

Q: And the IC50 [6]?
A: 0.018 µM

Q: What about the IC50 [7] of the same compound?
A: 0.111 µM

Q: And the IC50 [8]?
A: 0.052 µM

Q: Which IC50 [1] does the source give for CCn1c(=O)[nH]c2cccc(Oc3ccccc3)c21 here?
A: 3.88 µM

Q: For CCC(c1ccccc1)n1c(=O)[nH]c2ccc(Cl)cc21 (stereo unspecified), which IC50 [1] is on record?
A: 0.036 µM

Q: And the IC50 [6]?
A: > 0.2 µM

Q: What about the IC50 [7] of the same compound?
A: > 0.2 µM

Q: Which IC50 [1] does the source give for CCOC(=O)c1[nH]c2ccc(Cl)cc2c1C(SC)c1ccccc1 (stereo unspecified) here?
A: 0.039 µM

Q: With CCOC(=O)c1[nH]c2ccc(Cl)cc2c1C(OC)c1ccccc1 (stereo unspecified) as the compound, how does the IC50 [1] read?
A: 0.016 µM

Q: For CCCn1c(=O)[nH]c2cccc(Oc3cc(Cl)cc(C#N)c3)c21, which IC50 [1] is on record?
A: 0.05 µM

Q: With CCn1c(=O)[nH]c2cccc(Oc3ccnc(Cl)c3)c21 as the compound, how does the IC50 [1] read?
A: > 44.1 µM

Q: For CCn1c(=O)[nH]c2cccc(Oc3cc(C#N)ccn3)c21, which IC50 [1] is on record?
A: 1.36 µM

Q: Which IC50 [1] does the source give for CCOC(=O)c1[nH]c2ccc(Cl)cc2c1C(OC)c1cc(C)cc(C)c1 (stereo unspecified) here?
A: 0.034 µM

Q: With CCn1c(=O)[nH]c2cccc(Oc3cccc4ccccc34)c21 as the compound, how does the IC50 [1] read?
A: 2.27 µM

Q: Which IC50 [1] does the source give for CCOC(=O)c1[nH]c2ccc(Cl)cc2c1C(SC)c1cc(C)cc(C)c1 (stereo unspecified) here?
A: 0.06 µM

Q: For CCn1c(=O)[nH]c2cccc(Oc3ccnc(C#N)c3)c21, which IC50 [1] is on record?
A: 13.3 µM

Q: Which IC50 [1] does the source give for CCn1c(=O)[nH]c2cccc(Oc3cc(C)cc(C)c3)c21 here?
A: 0.303 µM

Q: For CCn1c(=O)[nH]c2cccc(Oc3cc(C#N)cc(C#N)c3)c21, which IC50 [1] is on record?
A: 0.063 µM
